Assay [1] concerns the target T1, DP receptor (Homo sapiens, UniProt Q13258).
T1 construct: endogenous in cells; host or cells: washed platelets from peripheral blood of a healthy volunteer
T1 sequence (Q13258 1-359): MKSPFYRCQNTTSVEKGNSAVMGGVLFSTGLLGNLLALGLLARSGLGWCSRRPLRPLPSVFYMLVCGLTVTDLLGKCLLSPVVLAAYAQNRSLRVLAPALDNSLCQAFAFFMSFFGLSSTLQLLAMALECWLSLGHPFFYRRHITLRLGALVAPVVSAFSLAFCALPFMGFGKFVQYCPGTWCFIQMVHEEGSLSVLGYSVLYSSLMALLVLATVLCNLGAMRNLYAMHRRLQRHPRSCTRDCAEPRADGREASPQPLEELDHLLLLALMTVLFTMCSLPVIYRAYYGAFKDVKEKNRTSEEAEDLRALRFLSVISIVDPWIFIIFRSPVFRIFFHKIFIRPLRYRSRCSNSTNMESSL
As to the kind of experiment: cAMP assay with washed platelet (DP inhibitory activity in vitro). Particulars: washed human platelets, 100 nM PGD2, cAMP by HTRF. It counts as cell-based. As for the experimental part:
1) Preparation of Platelet and a Method of cAMP Assay
30 mL of peripheral blood was collected from a healthy volunteer using a syringe containing one ninth amount of 3.8% sodium citrate. After being centrifuged at 180 g for 10 minutes at room temperature, a supernatant was collected and used as Platelet Rich Plasma (PRP). The resulting PRP was washed with wash buffer and centrifuged three times (Washed Platelet: WP) and platelets were counted by a microcell counter. WP was added to a plate in amount of 1.5×10^8/assay and the plate was treated with 3-isobutyl-1-methylxanthin (IBMX; 0.5 mM) for 5 minutes. A reaction was initiated by adding 100 nM of PGD2 5 min after an addition of a test compound. The reaction was terminated with an addition of 1N hydrochloric acid after 2 minutes and the cells were destructed using 12% triton X-100. An amount of cAMP in the supernatant was assayed by Homogeneous Trangient Fluorescence (HTRF)
(cAMP levels reflect the balance of adenylyl cyclase and phosphodiesterase activity.)

Assay [2] concerns the target T1, DP receptor. As to the kind of experiment: Receptor binding assay, [3H]-PGD2, platelet membrane. Particulars: [3H]-PGD2, human platelet membrane. The method, then: 2) Receptor Binding Assay
A prepared WP was homogenated and a membrane fraction was collected with high-speed centrifugation. A compound of the present invention or a reference compound A (No. IC-73 in WO 2003/097598) was added to the plate and [^3H]-PGD2 was also added. A platelet membrane, a protein concentration is 2 mg/mL, was added and mixed in the plate, and placed on ice for 2 hours. The reaction solution was transferred to a low protein-adsorptive filter and washed with a wash solution eight times using a cell harvester. After the final washing, water was removed sufficiently, and scintillator was added. DP inhibitory activity was investigated by measuring [^3H] by using Micro Beta.

The subject of the next assay is OVA asthma model of rat. As to the kind of experiment: Test using OVA asthma model of rat (airway hyperresponsiveness, infiltration of inflammatory cells, mucus-secretion). It counts as in vivo, Brown Norway (BN) Rats. Particulars: po, 72 h. As for the experimental part:
Test Using OVA Asthma Model of Rat
Brown Norway (BN) Rats were sensitized by i.p. administration of 0.1 mg/mL of ovalbumin (OVA) and 1 mg of aluminum hydroxide gel. A solution of 1% OVA was aerosolized by ultrasonic nebulizer (NE-U17) and the rats were subjected to inhalation exposure of the aerosol for 30 minutes in an exposing chamber 12, 19, 26 and 33 days after the sensitization. One hour before the 4th exposure of the antigen, compounds of the present invention were administered in a dose of 10 mg/kg p.o. once a day for three days consecutively. In a control group, 0.5% of methyl cellulose was administered in place of the compound of the present invention.
Under pentobarbital anesthesia (80 mg/kg, i.p.), acetylcholine (3.9, 7.8, 15.6, 31.3, 62.5, 125, 250 and 500 μg/kg) was injected to jugular vein of the rats successively from a lower dose at intervals of 5 minutes three days after the fourth exposure to the antigen, and immediate contractile reaction of airways (an increase of insufflation pressure) was measured by a modified method of Konnzett & Ririssler. Inhibition rate of airway hyperresponsiveness against the control group was calculated based on area under the curve (AUC) obtained from concentration-response curve of acetylcholine.
After the measurement of increased hyperresponsive airway was completed, bronchoalveoli of the rats were washed with 5 mL of saline three times. Total cell number in the washings was counted by a hemacytometer under light microscope, and inhibition rates of infiltration of inflammatory cells against the control group were calculated. Further, mucin in the airway lavage fluid was measured by ELISA method using jacalin, a mucin-binding lectin, and the inhibition rates of mucus-secretion against the control group were calculated.

The mark [3] stands for this setting: read-out: IC50 (50% DP-inhibitory concentration in the cAMP assay).
Where [4] appears, read: BN rats, 10 mg/kg p.o. once a day for three days, mucin in airway lavage fluid by ELISA against control group, read-out: inhibition rate (%) mucus-secretion.
Where [5] appears, read: BN rats, 10 mg/kg p.o. once a day for three days, total cell number in bronchoalveolar washings against control group, read-out: inhibition rate (%) infiltration of inflammatory cells.
Setting [6] is: read-out: inhibition rate (%) airway hyperresponsiveness.

These results are taken from US9440938B2, “Sulfonamide derivative having PGD2 receptor antagonistic activity” (SHIONOGI & CO., LTD., priority 2005, dated 2016).

In general, Ki refers to the equilibrium dissociation constant of an inhibitor or competing ligand from its target. Read a low Ki as tighter binding.

Read-outs that look alike come from different tables or passages of the source.

For `CC(C)Oc1ccc(S(=O)(=O)N2CCN(c3ccc(NC(=O)c4ccco4)c(OCC(=O)O)c3)CC2)cc1` [II-24], at DP receptor [1] (setting [3]), the IC50 was determined as 510 nM. This molecule displayed a Ki at DP receptor [2] of 1700 nM. Further, the values for the inhibition in vivo at 10 mg/kg with OVA asthma model of rat (setting [4]), in the assay with OVA asthma model of rat (setting [5]) and in the assay on OVA asthma model of rat (setting [6]) were 89%, 67% and 77%, respectively.

For the molecule `CC(C)Oc1ccc(S(=O)(=O)N2CCN(c3ccc(Cl)c(OCC(=O)O)c3)CC2)cn1` [II-27], at DP receptor [1] (setting [3]), the IC50 is 1000 nM. Besides, at DP receptor [2], the Ki was 1400 nM. The inhibition in vivo at 10 mg/kg in the assay with OVA asthma model of rat (setting [4]) is 118%; with OVA asthma model of rat (setting [5]), 49%; with OVA asthma model of rat (setting [6]), 49%.

Turning to `CC[C@@H](C)Oc1ccc(S(=O)(=O)N2CCN(c3ccc(Cl)c(OCC(=O)O)c3)CC2)cc1` [II-29], the IC50 at DP receptor [1] (setting [3]) was found to be 380 nM. At DP receptor [2], the Ki stood at 740 nM. Further, the inhibition in vivo at 10 mg/kg with OVA asthma model of rat (setting [4]) was determined as 110%; in the assay on OVA asthma model of rat (setting [5]) it was 60%; with OVA asthma model of rat (setting [6]), 89%.

For `CC(C)Oc1ccc(S(=O)(=O)N2CCN(c3ccc(Cl)c(OCC(=O)O)c3)CC2C)cc1` (stereo not shown) [II-43], the IC50 at DP receptor [1] (setting [3]) was 740 nM. The Ki at DP receptor [2] was determined as 2300 nM. Moreover, the values for the inhibition in vivo at 10 mg/kg in the assay on OVA asthma model of rat (setting [4]), in the assay on OVA asthma model of rat (setting [5]) and in the assay with OVA asthma model of rat (setting [6]) were 98%, 33% and 56%, respectively.

As to `CC(C)Sc1ccc(S(=O)(=O)N2CCN(c3ccc(Cl)c(OCC(=O)O)c3)CC2)cc1` [II-35], the IC50 on DP receptor [1] (setting [3]) stood at 470 nM. On DP receptor [2], the Ki is 3100 nM. In addition, the inhibition in vivo at 10 mg/kg was 84% in the assay with OVA asthma model of rat (setting [4]), 60% in the assay on OVA asthma model of rat (setting [5]) and 88% in the assay with OVA asthma model of rat (setting [6]).

As to `CC(C)Oc1ccc(S(=O)(=O)N2CCN(c3cc(OCC(=O)O)cc(C(F)(F)F)c3)CC2)cc1` [II-19], the IC50 at DP receptor [1] (setting [3]) is 1100 nM. At DP receptor [2], this molecule had a Ki of 2000 nM. The inhibition in vivo at 10 mg/kg in the assay on OVA asthma model of rat (setting [4]) stood at 59%; with OVA asthma model of rat (setting [5]), 51%; with OVA asthma model of rat (setting [6]), 54%.

As for `CC(C)Oc1ccc(S(=O)(=O)N2CCN(c3ccc(Br)c(OCC(=O)O)c3)CC2)cc1` [II-33], the IC50 on DP receptor [1] (setting [3]) came out at 300 nM. The molecule also returned a Ki on DP receptor [2] of 1900 nM. The inhibition in vivo at 10 mg/kg turned out to be 76% with OVA asthma model of rat (setting [4]), 57% in the assay on OVA asthma model of rat (setting [5]) and 72% in the assay with OVA asthma model of rat (setting [6]).

As for `CC(C)Oc1ccc(S(=O)(=O)N2CCN(c3cc(F)c(F)c(OCC(=O)O)c3)CC2)cc1` [II-16], on DP receptor [1] (setting [3]), the IC50 came to 250 nM. Besides, the affinity at DP receptor [2] corresponds to a Ki of 870 nM. Moreover, the inhibition in vivo at 10 mg/kg with OVA asthma model of rat (setting [4]) was found to be 76%; in the assay with OVA asthma model of rat (setting [5]), 67%; in the assay with OVA asthma model of rat (setting [6]), 131%.

Turning to `CC(C)Oc1ccc(S(=O)(=O)N2CCN(c3ccc(-c4cocn4)c(OCC(=O)O)c3)CC2)cc1` [II-96], the IC50 on DP receptor [1] (setting [3]) was determined as 290 nM. Moreover, the Ki at DP receptor [2] turned out to be 330 nM. Besides, the inhibition in vivo at 10 mg/kg was determined as 52% in the assay on OVA asthma model of rat (setting [4]), 46% in the assay on OVA asthma model of rat (setting [5]) and 105% in the assay with OVA asthma model of rat (setting [6]).

Regarding `CC(C)Oc1ccc(S(=O)(=O)N2CCN(c3ccc(-c4cnco4)c(OCC(=O)O)c3)CC2)cc1` [II-84], on DP receptor [1], the IC50 was found to be 180 nM. The molecule further showed an inhibition constant (Ki) on DP receptor [2] of 330 nM. In addition, the inhibition in vivo at 10 mg/kg with OVA asthma model of rat (setting [4]) amounted to 56%; in the assay on OVA asthma model of rat (setting [5]), 54%; with OVA asthma model of rat (setting [6]), 82%.

`CC(C)Oc1ccc(S(=O)(=O)N2CCN(c3ccc(C#N)c(OCC(=O)O)c3)CC2)cc1` [II-80]: the IC50 on DP receptor [1] (setting [3]) was 200 nM. This molecule also displayed a Ki at DP receptor [2] of 230 nM. Besides, the inhibition in vivo at 10 mg/kg turned out to be 82% in the assay on OVA asthma model of rat (setting [4]), 57% in the assay with OVA asthma model of rat (setting [5]) and 39% with OVA asthma model of rat (setting [6]).

On to `CC(C)Oc1ccc(S(=O)(=O)N2CCN(c3cc(Br)cc(OCC(=O)O)c3)CC2)cc1` [II-17], for which the IC50 on DP receptor [1] (setting [3]) was found to be 230 nM. The molecule further had an inhibition constant (Ki) on DP receptor [2] of 570 nM. The inhibition in vivo at 10 mg/kg in the assay on OVA asthma model of rat (setting [4]) was 49%; in the assay on OVA asthma model of rat (setting [5]) it was 53%; in the assay on OVA asthma model of rat (setting [6]), 89%.

For `CC(C)Oc1ccc(S(=O)(=O)N2CCN(c3ccc(-c4nccs4)c(OCC(=O)O)c3)CC2)cc1` [II-92], the IC50 on DP receptor [1] (setting [3]) was 360 nM. The molecule also registered a Ki on DP receptor [2] of 580 nM. Moreover, the inhibition in vivo at 10 mg/kg in the assay on OVA asthma model of rat (setting [4]) amounted to 44%; in the assay on OVA asthma model of rat (setting [5]), 46%; in the assay on OVA asthma model of rat (setting [6]), 53%.

For the molecule `CC(C)Oc1ccc(S(=O)(=O)N2CCN(c3ccc([N+](=O)[O-])c(OCC(=O)O)c3)CC2)cc1` [II-13], the IC50 at DP receptor [1] (setting [3]) was 280 nM. The Ki at DP receptor [2] stood at 810 nM. In addition, the inhibition in vivo at 10 mg/kg in the assay on OVA asthma model of rat (setting [4]) stood at 47%; in the assay on OVA asthma model of rat (setting [5]) it was 46%; in the assay with OVA asthma model of rat (setting [6]) it was 99%.

In the case of `CC(C)Oc1ccc(S(=O)(=O)N2CCN(c3ccc(-c4ccoc4)c(OCC(=O)O)c3)CC2)cc1` [II-54], on DP receptor [1], the IC50 stood at 420 nM. The affinity at DP receptor [2], expressed as Ki, was 270 nM. Further, the inhibition in vivo at 10 mg/kg in the assay with OVA asthma model of rat (setting [4]) turned out to be 106%; with OVA asthma model of rat (setting [5]) it was 39%; in the assay on OVA asthma model of rat (setting [6]), 119%.

Turning to `CC(C)Oc1ccc(S(=O)(=O)N2CCN(c3cc(Cl)cc(OCC(=O)O)c3)CC2)cc1` [II-26], the IC50 on DP receptor [1] (setting [3]) amounted to 430 nM. In addition, on DP receptor [2], the Ki turned out to be 630 nM. Also, the inhibition in vivo at 10 mg/kg was 121% with OVA asthma model of rat (setting [4]), 37% in the assay on OVA asthma model of rat (setting [5]) and 97% in the assay with OVA asthma model of rat (setting [6]).

In the case of `CC(C)Oc1ccc(S(=O)(=O)N2CCN(c3cc(OCC(=O)O)cc(-c4ccoc4)c3)CC2)cc1` [II-38], the IC50 on DP receptor [1] (setting [3]) was determined as 650 nM. The molecule also showed a Ki on DP receptor [2] of 250 nM. Also, the inhibition in vivo at 10 mg/kg with OVA asthma model of rat (setting [4]) was determined as 71%; with OVA asthma model of rat (setting [5]) it was 69%; in the assay with OVA asthma model of rat (setting [6]), 39%.
